# Columns and labels:
# [1] = Octanol/water partition coefficient; format: physicochemical; settings: in the range of pH 3 to 9
# Source text: However, the octanol/water partition coefficient of compound A in the range of pH 3 to 9 is less than 0.05, which greatly differs from the partition coefficient (100 to 1000) of a compound generally having high membrane permeability. Compound A tends to be difficult to permeate through a membrane. Thus, it is difficult to provide a transdermal preparation comprising compound A or a salt thereof and having transdermal absorbability sufficient to exert a pharmacological effect. A transdermal preparation of compound A or a salt thereof is not known.
# [2] = system: fungi, azole antifungal agent-resistant fungi; settings: Patent Document 1; cited from earlier work
compound,measurement,setting,value
"N=C(N)c1ccc(OCCCC2CCN(CCCOc3ccc(C(=N)N)cc3)CC2)cc1 [compound A, 4-{3-[4-(3-{4-[Amino(imino)methyl]phenoxy}propyl)-1-piperidinyl]propoxy}benzamidine]",octanol/water partition coefficient,[1],less than 0.05
same,antifungal activity (in words),[2],strong antifungal activity

# From patent US20130197036A1, “TRANSDERMAL ABSORPTION PREPARATION” (priority 2010, published 2013)
